The target in assay [1] is AMPA receptors (rat cerebral cortical membrane homogenate). The experiment in a line: 3H-AMPA binding (Test 1): displacement of 3H-AMPA from AMPA type receptors. To be noted: 5 nM 3H-AMPA, 0° C., 30 min, pH 7.1. On the procedure:
The affinity of a substance for one or more of the different types of excitatory amino acid receptors may be studied in simple binding experiments. In essense, the method involves incubation of a particular selected radiolabelled ligand and the particular specific substance to be investigated with brain homogenate which contains the receptor. Measurement of receptor occupancy is made by determination of the radioactivity bound to the homogenate and subtraction of nonspecific binding.
AMPA receptor binding may be studied by using ^3 H-AMPA as radioligand.
The pharmacological properties of the compounds of the present invention can be illustrated by determining their capability for displacing radioactively labelled 2-amino-3-hydroxy-5-methyl-4-isoxazolepropionic acid (AMPA) from the AMPA type receptors. […]
500 μl of thawed rat cerebral cortical membrane homogenate in Tris-HCl (30 mM), CaCI2 (2.5 mM) and KSCN (100 mM) pH 7.1 were incubated at 0° C. for 30 min. with 25 μl ^3 H-AMPA (5 nM final concentration) and the test compound and buffer. Non specific binding was determined by incubation with L-glutamic acid ([…] final concentration). […] Bound radioactivity was measured by scintillation counting. IC50 was determined by Hill analysis of at least four concentrations of test compound.
A general note: In a radioligand displacement assay an active substance lowers the binding of a labelled ligand.

Assay [2] relates to quisqualic acid stimulated spreading depression in chicken retina. The experiment in a line: Spreading depression (Test 2): inhibition of quisqualic acid stimulated spreading depression in chicken retina. In kind it is cell-based. To be noted: Gallus gallus, 0.25 h, quisqualate 1 μg/ml, 26° C., 15 min incubation with test compound, read-out: TEST 2 IC50 (50% maximal inhibition of quisqualic acid stimulated spreading depression). The source says: The influence of glutamic add analogues on secondary effects of glutamate receptor interactions may be studied in vitro by using the phenomenon of spreading depression in chicken retina. Such experiments will provide information as to the efficades (agonist/antagonist) of the test substances. This is in contrast to binding studies, which only provide information on the affinities of the compounds for the receptor.
The pharmacological properties of the compounds of the present invention can be illustrated by determining their capability for displacing radioactively labelled 2-amino-3-hydroxy-5-methyl-4-isoxazolepropionic acid (AMPA) from the AMPA type receptors.
The antagonism is measured by determining the IC50 value which represents the concentration which produces a ,50% maximal inhibition of quisqualic acid stimulated spreading depression in chicken retina.
Spreading depression (Test 2) […]
The eyes are initially incubated in normal P.S.S. for 15-30 min. and then transferred to P.S.S. containing quisqualate (1μ g/ml). […] The time taken for an S.D. to start in each eye is measured.
After a further 15 min. of incubation in normal P.S.S. the eyes are transferred to normal P.S.S. containing the test compound and incubated for 15 min. […] The time taken for an S.D. to start in each eye is again measured. […]

≈ marks a conversion by molar mass, not a printed value.

As to `N#Cc1ccc2c(c1)[nH]c(=O)c1n[nH]c(=O)n12` [Example 4, 7-Cyano 1,2,4!triazolo 4,3-a!quinoxaline-1,4(2H, 5H)-dione], the “TEST 1 IC50 (displacement of 50% of the specific binding of 3H-AMPA)” value in assay [1] worked out at 0.09 µg/mL. Further, the 50% inhibitory concentration (IC50) in assay [2] came out at 0.47 µg/mL (≈ 2.07 µM).
The like results for `O=c1[nH]c2cc(C(F)(F)F)ccc2n2c(=O)[nH]nc12` [Example 3, 7-Trifluoromethyl 1,2, 4!triazolo 4,3-a!quinoxaline-1,4(2H,5H)-dione] were, in that order, 1.3 µg/mL and 1.3 µg/mL (≈ 4.81 µM).

By IC50 is commonly meant the concentration at which inhibition is half-maximal.

These data come from US5504085A, “Triazolo quinoxalines and their preparation and use” (Novo Nordisk A/S, priority 1991, dated 1996).
